Source: patent publication US12686687B2, “Compounds and uses thereof” (Foghorn Therapeutics Inc., priority 2019, dated 2026)

The compounds below were run against T1, Nanoluciferase-BRD9 fusion protein (3×FLAG-NLuc-BRD9) in SYO-1 cells (Homo sapiens, UniProt Q9H8M2) (assay: SYO1 BRD9 NanoLuc degradation assay). Details: Table 6B; SYO-1 cells expressing 3×FLAG-NLuc-BRD9, 6 hours incubation, 1 μM top dose; read-out: SYO1 BRD9-NanoLuc degradation IC50.
T1 construct: expressed in transfected cells; host or cells: SYO-1
T1 sequence (Q9H8M2 1-597): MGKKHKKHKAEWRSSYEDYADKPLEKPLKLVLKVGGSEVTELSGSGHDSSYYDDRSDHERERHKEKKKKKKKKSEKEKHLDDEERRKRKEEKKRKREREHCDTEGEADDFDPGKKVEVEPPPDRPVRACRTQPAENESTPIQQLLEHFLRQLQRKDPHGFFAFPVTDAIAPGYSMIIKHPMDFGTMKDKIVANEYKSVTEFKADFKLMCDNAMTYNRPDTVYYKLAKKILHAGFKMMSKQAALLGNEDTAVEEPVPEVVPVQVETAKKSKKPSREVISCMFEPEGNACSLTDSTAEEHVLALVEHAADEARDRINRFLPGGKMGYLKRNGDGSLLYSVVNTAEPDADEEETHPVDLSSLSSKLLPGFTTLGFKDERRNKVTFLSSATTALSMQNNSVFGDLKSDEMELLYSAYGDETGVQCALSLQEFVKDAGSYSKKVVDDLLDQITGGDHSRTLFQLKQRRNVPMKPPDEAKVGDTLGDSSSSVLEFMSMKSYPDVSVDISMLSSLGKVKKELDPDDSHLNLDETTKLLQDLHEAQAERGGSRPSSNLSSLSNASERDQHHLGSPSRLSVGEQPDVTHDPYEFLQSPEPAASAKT
Format: cell-based
Protocol: Procedure: A stable SYO-1 cell line expressing 3×FLAG-NLuc-BRD9 was generated. On day 0 cells were seeded in 30 μL media into each well of 384-well cell culture plates. The seeding density was 8000 cells/well. On day 1, cells were treated with 30 nL DMSO or 30 nL of 3-fold serially DMSO-diluted compounds (10 points in duplicates with 1 μM as final top dose). Subsequently plates were incubated for 6 hours in a standard tissue culture incubator and equilibrated at room temperature for 15 minutes. Nanoluciferase activity was measured by adding 15 μL of freshly prepared Nano-Glo Luciferase Assay Reagent (Promega N1130), shaking the plates for 10 minutes and reading the bioluminescence using an EnVision reader. • Results: The Inhibition % was calculated using the following formula: % Inhibition=100×(LumHC−LumSample)/(LumHC−LumLC). DMSO treated cells are employed as High Control (HC) and 1 μM of a known BRD9 degrader standard treated cells are employed as Low Control (LC).
COc1cc(-c2cn(C)c(=O)c3cc(C(=O)NC4CCN(CCCCCOc5cccc6c5C(=O)N(C5CCC(=O)NC5=O)C6=O)CC4(F)F)sc23)cc(OC)c1CN(C)C (stereo not drawn) [Compound D16] gave a DC50 of under 10 nM.
With COc1cc(-c2cn(C)c(=O)c3cc(C(=O)NC4CCN(CCN5CCN(c6ccc7c(c6)CN(C6CCC(=O)NC6=O)C7=O)CC5)CC4(F)F)sc23)cc(Cl)c1CN(C)C (stereo not drawn) [Compound D17] the DC50 was under 10 nM.
For COc1cc(-c2cn(C)c(=O)c3cc(C(=O)NC4CCN(C(=O)CN5CCC6(CC5)CN(c5ccc7c(c5)CN(C5CCC(=O)NC5=O)C7=O)C6)CC4(F)F)sc23)cc(OC)c1CN(C)C (stereo not drawn) [Compound D18], the DC50 was under 10 nM.
COc1cc(-c2cn(C)c(=O)c3cc(C(=O)NC4CCN(CCN5CCC6(CC5)CN(c5ccc7c(c5)CN(C5CCC(=O)NC5=O)C7=O)C6)CC4(F)F)sc23)cc(OC)c1CN(C)C (stereo not drawn) [Compound D19] gave a DC50 of under 10 nM.
For COc1cc(-c2cn(C)c(=O)c3scnc23)cc(OC)c1CN1CC(CN2CCC3(CC2)CN(c2ccc4c(c2)C(=O)N(C2CCC(=O)NC2=O)C4)C3)C1 (stereo not drawn) [Compound D20], the DC50 was under 10 nM.
COc1cc(-c2cn(C)c(=O)c3occc23)cc(OC)c1CN1CC(CN2CCC3(CC2)CN(c2ccc4c(c2)C(=O)N(C2CCC(=O)NC2=O)C4)C3)C1 (stereo not drawn) [Compound D21] showed a DC50 of under 10 nM.
COc1cc(-c2cn(C)c(=O)c3cc(C(=O)NC4CCN(C)CC4(F)F)sc23)cc(OC)c1CN1CCN(c2ccc3c(c2)CN(C2CCC(=O)NC2=O)C3=O)CC1 (stereo not drawn) [Compound D22] was tested, and the DC50 was under 10 nM.
With COc1cc(-c2cn(C)c(=O)c3cc(C(=O)NC4CCN(C5CCN(c6ccc7c(c6)C(=O)N(C6CCC(=O)NC6=O)C7)CC5)CC4(F)F)sc23)cc(OC)c1CN(C)C (stereo not drawn) [Compound D24] the DC50 was under 10 nM.
COc1cc(-c2cn(C)c(=O)c3cc(C(=O)NC4CCN(C5CCN(c6ccc7c(c6)CN(C6CCC(=O)NC6=O)C7=O)CC5)CC4(F)F)sc23)cc(OC)c1CN(C)C (stereo not drawn) [Compound D25] gave a DC50 of under 10 nM.
COc1cc(-c2cn(C)c(=O)c3cc(C(=O)NC4CCN(C)CC4(F)F)sc23)cc(OC)c1CN1CCC(CCN2CCN(c3ccc4c(c3)C(=O)N(C3CCC(=O)NC3=O)C4=O)CC2)CC1 (stereo not drawn) [Compound D26] gave a DC50 of under 10 nM.
With COc1cc(-c2cn(C)c(=O)c3cc(C(=O)NC4CCN(C(C)=O)CC4)sc23)cc(OC)c1CN1CCC(CCN2CCN(c3ccc4c(c3)C(=O)N(C3CCC(=O)NC3=O)C4=O)CC2)CC1 (stereo not drawn) [Compound D27] the DC50 was under 10 nM.
Work on COc1cc(-c2cn(C)c(=O)c3cc(C(=O)NC4CCN(CCCCCOc5ccc6c(c5)C(=O)N(C5CCC(=O)NC5=O)C6=O)CC4(F)F)sc23)cc(OC)c1CN1CCC1 (stereo not drawn) [Compound D28] yielded a DC50 of under 10 nM.
In the case of COc1cc(-c2cn(C)c(=O)c3cc(C(=O)NC4CCN(C(=O)CCCCOc5cccc6c5C(=O)N(C5CCC(=O)NC5=O)C6=O)CC4)sc23)cc(OC)c1CN1CCC1 (stereo not drawn) [Compound D29], the DC50 is reported as under 10 nM.
With COc1cc(-c2cn(C)c(=O)c3cc(C(=O)NC4CCN(C)CC4(F)F)sc23)cc(OC)c1CN(C)CC(=O)NCCOCCOc1cccc2c1C(=O)N(C1CCC(=O)NC1=O)C2=O (stereo not drawn) [Compound D30] the DC50 was over 10 nM.
For Cn1cc(-c2cccc(C(F)(F)F)c2)c2sc(C(=N)NC3CCS(=O)(=O)N(CC(=O)NCCCCCCCCNc4cccc5c4C(=O)N(C4CCC(=O)NC4=O)C5=O)C3)cc2c1=O (stereo not drawn) [Compound D31], the DC50 was over 10 nM.
In the case of COc1cc(-c2cn(C)c(=O)c3cc(C(=O)NC4CCN(C)CC4)sc23)cc(OC)c1CN(C)CC(=O)NCCOCCOc1cccc2c1C(=O)N(C1CCC(=O)NC1=O)C2=O (stereo not drawn) [Compound D32], the DC50 is reported as over 100 nM.
In the case of COc1cc(-c2cn(C)c(=O)c3cc(C(=O)NCC4CC5(CCN(CCCN6CCN(c7ccc8c(c7)C(=O)N(C7CCC(=O)NC7=O)C8=O)CC6)CC5)C4)sc23)cc(OC)c1CN(C)C (stereo not drawn) [Compound D33], the DC50 is reported as under 10 nM.
Compound COc1cc(-c2cn(C)c(=O)c3cc(C(=O)NCC4CC5CN(C(=O)CCN6CCN(c7ccc8c(c7)C(=O)N(C7CCC(=O)NC7=O)C8=O)CC6)CC5C4)sc23)cc(OC)c1CN(C)C (stereo not drawn) [Compound D34] has a DC50 of over 100 nM.
COc1cc(-c2cn(C)c(=O)c3cc(C(=O)NCC4CC5(CCN(C(=O)CCN6CCN(c7ccc8c(c7)C(=O)N(C7CCC(=O)NC7=O)C8=O)CC6)CC5)C4)sc23)cc(OC)c1CN(C)C (stereo not drawn) [Compound D35] gave a DC50 of under 10 nM.
In the case of COc1cc(-c2cn(C)c(=O)c3cc(C(=O)NCC4CC5(CCN(CCN6CCN(c7ccc8c(c7)C(=O)N(C7CCC(=O)NC7=O)C8=O)CC6)CC5)C4)sc23)cc(OC)c1CN(C)C (stereo not drawn) [Compound D36], the DC50 is reported as under 10 nM.
COc1cc(-c2cn(C)c(=O)c3cc(C(=O)NC4CCC5CN(CCCN6CCN(c7ccc8c(c7)C(=O)N(C7CCC(=O)NC7=O)C8=O)CC6)CC54)sc23)cc(OC)c1CN(C)C (stereo not drawn) [Compound D37] gave a DC50 of under 10 nM.
COc1cc(-c2cn(C)c(=O)c3cc(C(=O)NC4CCC5CN(CCN6CCN(c7ccc8c(c7)C(=O)N(C7CCC(=O)NC7=O)C8=O)CC6)CC54)sc23)cc(OC)c1CN(C)C (stereo not drawn) [Compound D38] showed a DC50 of under 10 nM.
Compound COc1cc(-c2cn(C)c(=O)c3cc(C(=O)NC4CCC5(CCN(CCN6CCN(c7ccc8c(c7)C(=O)N(C7CCC(=O)NC7=O)C8=O)CC6)C5)C4)sc23)cc(OC)c1CN(C)C (stereo not drawn) [Compound D39] has a DC50 of under 10 nM.
In the case of COc1cc(-c2cn(C)c(=O)c3cc(C(=O)NC4CC5(CCN(C(=O)CCN6CCN(c7ccc8c(c7)C(=O)N(C7CCC(=O)NC7=O)C8=O)CC6)CC5)C4)sc23)cc(OC)c1CN(C)C (stereo not drawn) [Compound D40], the DC50 is reported as under 10 nM.
COc1cc(-c2cn(C)c(=O)c3cc(C(=O)NC4CC5(CCN(CCN6CCN(c7ccc8c(c7)C(=O)N(C7CCC(=O)NC7=O)C8=O)CC6)CC5)C4)sc23)cc(OC)c1CN(C)C (stereo not drawn) [Compound D41] showed a DC50 of under 10 nM.
In the case of COc1cc(-c2cn(C)c(=O)c3cc(C(=O)NCC4CC5CN(CCCN6CCN(c7ccc8c(c7)C(=O)N(C7CCC(=O)NC7=O)C8=O)CC6)CC5C4)sc23)cc(OC)c1CN(C)C (stereo not drawn) [Compound D42], the DC50 is reported as under 10 nM.
COc1cc(-c2cn(C)c(=O)c3cc(C(=O)NCC4CC5CN(CCN6CCN(c7ccc8c(c7)C(=O)N(C7CCC(=O)NC7=O)C8=O)CC6)CC5C4)sc23)cc(OC)c1CN(C)C (stereo not drawn) [Compound D43] gave a DC50 of under 10 nM.
COc1cc(-c2cn(C)c(=O)c3cc(C(=O)NC4CCN(C(=O)CN5CCC6(C5)CN(c5ccc7c(c5)C(=O)N(C5CCC(=O)NC5=O)C7=O)C6)CC4(F)F)sc23)cc(OC)c1CN(C)C (stereo not drawn) [Compound D45] showed a DC50 of over 1000 nM.
Compound COc1cc(-c2cn(C)c(=O)c3cc(C(=O)NC4CCN(C(=O)CN5CCC6(CC5)CN(c5ccc7c(c5)C(=O)N(C5CCC(=O)NC5=O)C7=O)C6)CC4(F)F)sc23)cc(OC)c1CN(C)C (stereo not drawn) [Compound D46] has a DC50 of under 10 nM.
In the case of COc1cc(-c2cn(C)c(=O)c3cc(C(=O)NC4CCC5(CCN(C(=O)CCN6CCN(c7ccc8c(c7)C(=O)N(C7CCC(=O)NC7=O)C8=O)CC6)C5)C4)sc23)cc(OC)c1CN(C)C (stereo not drawn) [Compound D47], the DC50 is reported as over 10 nM.
Compound COc1cc(-c2cn(C)c(=O)c3cc(C(=O)NCC4CC5(CCN(C(=O)CCN6CCN(c7ccc8c(c7)C(=O)N(C7CCC(=O)NC7=O)C8=O)CC6)CC5)CO4)sc23)cc(OC)c1CN(C)C (stereo not drawn) [Compound D48] has a DC50 of over 10 nM.
COc1cc(-c2cn(C)c(=O)c3cc(C(=O)NCC4CC5(CCN(CCCN6CCN(c7ccc8c(c7)C(=O)N(C7CCC(=O)NC7=O)C8=O)CC6)CC5)CO4)sc23)cc(OC)c1CN(C)C (stereo not drawn) [Compound D49] was tested, and the DC50 was under 10 nM.
COc1cc(-c2cn(C)c(=O)c3cc(C(=O)NCC4CC5(CCN(CCN6CCN(c7ccc8c(c7)C(=O)N(C7CCC(=O)NC7=O)C8=O)CC6)CC5)CO4)sc23)cc(OC)c1CN(C)C (stereo not drawn) [Compound D50] was tested, and the DC50 was under 10 nM.
